From US4568690A, “1-Methyl-5-p-methylbenzoylpyrrole-2-acetamidoacetanilides with antiinflammatory, analgesic, antipyretic and anti-platelet aggregant activity” (priority 1983, dated 1986)
Like-named read-outs stand apart in the source and are kept apart here.

Tests used:
[1] = system: carragenin-induced edema; experiment: carragenin-induced edema test (antinflammatory activity); type: in vivo, rats
Experimental: (§1) Preparations of the compound were administered orally and/or parenterally in a suspension in 0.59% carboxymethylcellulose in pH neutral physiological saline.
This effect was evaluated with an experimental model reproducing actue inflammation in rats: the carragenin-induced edema test was used, according to the method of C. A. Winter (G. Pharmac. Exp. Ther., 141, 369 (1963)). Table III reports the compounds tested, their concentrations, administration routes and relative percent edema inhibition.

[2] = system: p-phenylquinone-induced writhing; experiment: p-phenylquinone-induced writhing test (analgesic activity); type: in vivo; conditions: an hour after administration
Experimental: as §1
The determination was made an hour after administration of the product. The inhibitory effect on abdominal contractions induced by phenyl-p-quinone was calculated as follows: [formula]
Table IV reports the doses, the administration routes and their effectiveness expressed as % protection.

[3] = system: hyperthermia induced by dry purified beer yeast; experiment: antipyretic activity, beer yeast-induced hyperthermia; type: in vivo, Wistar strain male albino rats
Experimental: as §1
This effect was evaluated by inducing hyperthermia in Wistar strain male albino rats with an average weight of 250±10 g, injecting them intraperitoneally with a 10% suspension of dry purified beer yeast (Carlo Erba) in a volume of 10 ml/Kg of body weight, according to the method of S. Wong et al. (J. Pharmac. Exp. Ther., 185 (1), 127 (1973)).

[4] = system: gastric mucosa; experiment: gastric tolerance (ulcerogenic activity); conditions: orally, four consecutive days; for Mean number severity: severity scale 0-5
Experimental: This was studied by testing ulcerogenic activity in male Wistar rats weighing an average of 180 g, using groups of 10 animals each. Three doses of each substance were used, and one group of animals was treated with vehicle only, in a volume of 10 ml/g body weight. Each dose was administered orally for four consecutive days, and the rats were killed on the fifth day and autopsied. The ulcerogenic effect was evaluated on the following scale:
(1) each hemorrhage point >1 mm was evaluated as 1 lesion
(2) the hemorrhage points <1 were counted as follows:
(b) from 1 to 19 2 lesions
(c) from 1 to 29 3 lesions
(2) gastric mucosa irritation
(3) hemorrhage points <1 mm
(4) hemorrhage points from 1 to 3 mm
(5) hemorrhage points >3 mm
This scale was used to calculate the following index of gastric damage: [formula]

[5] = system: platelet aggregation (ADP-induced); experiment: in vitro anti-platelet aggregant activity (Born's method, ADP); type: cell-based, rat; conditions: for inhibition at 1 µg/mL / inhibition at 5 µg/mL / inhibition at 10 µg/mL: Rattus norvegicus, Platelet, read-out: Inhibition % (platelet aggregation)
Experimental: This activity was studied in vitro following Born's method (G. W. R. Born, Nature, 194, 937 (1962)) and inducing platelet aggregation with ADP. […] For the aggregation test, 0.2 ml of platelet rich plasma was mixed with a NaCl solution (0.9%) to which the test substance was added up to a final volume of 0.6 ml. Incubation was fixed at 3 minutes at 27° C. After aggregation was induced with ADP, the course of the aggregation was monitored continuously with an Elvi 840 Aggregometer (Elvi Logos--Milan). The antiaggregant effects were determined by the difference in the light transmission of the sample with respect to that of the ADP control. The test compound was compared with aspirin, which has known antiplatelet aggregant activity (H. J. Weiss et al., J. Clin. Inv., 47, 2169 (1968); Platelet Aggregation and Drugs, edited by L. Caprino and E. C. Rossi, page 235, Academic Press (London), 1974).
Table VI reports the inhibition of platelet aggregation with various doses of the compounds tested at a constant ADP concentration.

Cc1ccc(C(=O)c2ccc(CC(=O)O)n2C)cc1 [Tolmetin Na.2H2 O, reference compound]
Oedema inhibition % ([1]; i.p., 10 mg/kg, 3 h): 33.7%
Oedema inhibition % ([1]; i.p., 10 mg/kg, 6 h): 30.1%
Oedema inhibition % ([1]; i.p., 10 mg/kg, 24 h): 0.0%
Oedema inhibition % ([1]; i.p., 50 mg/kg, 3 h): 47.1%
Oedema inhibition % ([1]; i.p., 50 mg/kg, 6 h): 44.0%
Oedema inhibition % ([1]; i.p., 50 mg/kg, 24 h): 0.0%
Oedema inhibition % ([1]; i.p., 100 mg/kg, 3 h): 58.3%
Oedema inhibition % ([1]; i.p., 100 mg/kg, 6 h): 52.2%
Oedema inhibition % ([1]; i.p., 100 mg/kg, 24 h): 5.3%
Oedema inhibition % ([1]; os, 10 mg/kg, 3 h): 32.0%
Oedema inhibition % ([1]; os, 10 mg/kg, 6 h): 20.0%
Oedema inhibition % ([1]; os, 10 mg/kg, 24 h): 0.0%
Oedema inhibition % ([1]; os, 50 mg/kg, 3 h): 46.8%
Oedema inhibition % ([1]; os, 50 mg/kg, 6 h): 45.0%
Oedema inhibition % ([1]; os, 50 mg/kg, 24 h): 0.0%
Oedema inhibition % ([1]; os, 100 mg/kg, 3 h): 56.1%
Oedema inhibition % ([1]; os, 100 mg/kg, 6 h): 54.3%
Oedema inhibition % ([1]; os, 100 mg/kg, 24 h): 8.9%
Protection % ([2]; i.p., 5 mg/kg): 16.5%
Protection % ([2]; i.p., 10 mg/kg): 46.2%
Protection % ([2]; i.p., 20 mg/kg): 69.3%
Protection % ([2]; os, 5 mg/kg): 15.0%
Protection % ([2]; os, 10 mg/kg): 40.6%
Protection % ([2]; os, 20 mg/kg): 62.0%
Temperature decrease % ([3]; i.p., 50 mg/kg, 1 h): 16.0%
Temperature decrease % ([3]; i.p., 50 mg/kg, 2 h): 19.0%
Temperature decrease % ([3]; i.p., 50 mg/kg, 3 h): 31.0%
Temperature decrease % ([3]; i.p., 75 mg/kg, 1 h): 20.0%
Temperature decrease % ([3]; i.p., 75 mg/kg, 2 h): 29.2%
Temperature decrease % ([3]; i.p., 75 mg/kg, 3 h): 34.7%
Temperature decrease % ([3]; i.p., 100 mg/kg, 1 h): 28.0%
Temperature decrease % ([3]; i.p., 100 mg/kg, 2 h): 39.1%
Temperature decrease % ([3]; i.p., 100 mg/kg, 3 h): 31.3%
Temperature decrease % ([3]; os, 50 mg/kg, 1 h): 18.0%
Temperature decrease % ([3]; os, 50 mg/kg, 6 h): 20.0%
Temperature decrease % ([3]; os, 50 mg/kg, 24 h): 29.5%
Temperature decrease % ([3]; os, 75 mg/kg, 1 h): 20.0%
Temperature decrease % ([3]; os, 75 mg/kg, 6 h): 26.0%
Temperature decrease % ([3]; os, 75 mg/kg, 24 h): 27.0%
Temperature decrease % ([3]; os, 100 mg/kg, 1 h): 32.0%
Temperature decrease % ([3]; os, 100 mg/kg, 6 h): 30.9%
Temperature decrease % ([3]; os, 100 mg/kg, 24 h): 47.2%
Mean number lesions ([4]; 50 mg/kg): 2
Mean number severity ([4]; 50 mg/kg): 2
Mean number lesions ([4]; 100 mg/kg): 2.5
Mean number severity ([4]; 100 mg/kg): 3.5
Mean number lesions ([4]; 200 mg/kg): 3
Mean number severity ([4]; 200 mg/kg): 4

COc1ccccc1NC(=O)CNC(=O)Cc1ccc(C(=O)c2ccc(C)cc2)n1C [Compound 1d]
Oedema inhibition % ([1]; i.p., 10 mg/kg, 3 h): 48.7%
Oedema inhibition % ([1]; i.p., 10 mg/kg, 6 h): 36.5%
Oedema inhibition % ([1]; i.p., 10 mg/kg, 24 h): 0.0%
Oedema inhibition % ([1]; i.p., 50 mg/kg, 3 h): 59.2%
Oedema inhibition % ([1]; i.p., 50 mg/kg, 6 h): 52.0%
Oedema inhibition % ([1]; i.p., 50 mg/kg, 24 h): 18.9%
Oedema inhibition % ([1]; i.p., 100 mg/kg, 3 h): 78.6%
Oedema inhibition % ([1]; i.p., 100 mg/kg, 6 h): 66.3%
Oedema inhibition % ([1]; i.p., 100 mg/kg, 24 h): 30.5%
Oedema inhibition % ([1]; os, 10 mg/kg, 3 h): 47.2%
Oedema inhibition % ([1]; os, 10 mg/kg, 6 h): 40.0%
Oedema inhibition % ([1]; os, 10 mg/kg, 24 h): 9.0%
Oedema inhibition % ([1]; os, 50 mg/kg, 3 h): 58.5%
Oedema inhibition % ([1]; os, 50 mg/kg, 6 h): 54.0%
Oedema inhibition % ([1]; os, 50 mg/kg, 24 h): 30.0%
Oedema inhibition % ([1]; os, 100 mg/kg, 3 h): 77.1%
Oedema inhibition % ([1]; os, 100 mg/kg, 6 h): 66.0%
Oedema inhibition % ([1]; os, 100 mg/kg, 24 h): 38.0%
antinflammatory, analgesic and antipyretic activity versus ester analogue (4) (in words) ([1]; rat, in vivo): comparable to that of the ester analogue (4)
anti-platelet aggregant activity (in words) [5]: particularly pronounced anti-platelet aggregant activity
inhibition at 1 µg/mL ([5]; 1 γ/ml, ADP 7.08 μmol/l): 20%
inhibition at 5 µg/mL ([5]; 5 γ/ml, ADP 7.08 μmol/l): 70%
inhibition at 10 µg/mL ([5]; 10 γ/ml, ADP 7.08 μmol/l): 90%
Protection % ([2]; i.p., 5 mg/kg): 29.0%
Protection % ([2]; i.p., 10 mg/kg): 60.1%
Protection % ([2]; i.p., 20 mg/kg): 73.4%
Protection % ([2]; os, 5 mg/kg): 22.9%
Protection % ([2]; os, 10 mg/kg): 54.2%
Protection % ([2]; os, 20 mg/kg): 70.1%
Temperature decrease % ([3]; i.p., 50 mg/kg, 1 h): 18.0%
Temperature decrease % ([3]; i.p., 50 mg/kg, 2 h): 26.0%
Temperature decrease % ([3]; i.p., 50 mg/kg, 3 h): 39.0%
Temperature decrease % ([3]; i.p., 75 mg/kg, 1 h): 30.0%
Temperature decrease % ([3]; i.p., 75 mg/kg, 2 h): 36.1%
Temperature decrease % ([3]; i.p., 75 mg/kg, 3 h): 56.1%
Temperature decrease % ([3]; i.p., 100 mg/kg, 1 h): 42.0%
Temperature decrease % ([3]; i.p., 100 mg/kg, 2 h): 49.0%
Temperature decrease % ([3]; i.p., 100 mg/kg, 3 h): 48.0%
Temperature decrease % ([3]; os, 50 mg/kg, 1 h): 16.0%
Temperature decrease % ([3]; os, 50 mg/kg, 6 h): 22.0%
Temperature decrease % ([3]; os, 50 mg/kg, 24 h): 30.1%
Temperature decrease % ([3]; os, 75 mg/kg, 1 h): 18.0%
Temperature decrease % ([3]; os, 75 mg/kg, 6 h): 28.0%
Temperature decrease % ([3]; os, 75 mg/kg, 24 h): 48.2%
Temperature decrease % ([3]; os, 100 mg/kg, 1 h): 29.0%
Temperature decrease % ([3]; os, 100 mg/kg, 6 h): 32.0%
Temperature decrease % ([3]; os, 100 mg/kg, 24 h): 50.0%
Index gastric damage ([4]; 50 mg/kg): 9
Index gastric damage, signed figure (untitled; difference from Carrier index 8) ([4]; 50 mg/kg): +1
Mean number lesions ([4]; 50 mg/kg): 1
Mean number severity ([4]; 50 mg/kg): 1
Index gastric damage ([4]; 100 mg/kg): 11
Index gastric damage, signed figure (untitled; difference from Carrier index 8) ([4]; 100 mg/kg): +3
Mean number lesions ([4]; 100 mg/kg): 1
Mean number severity ([4]; 100 mg/kg): 2
Index gastric damage ([4]; 200 mg/kg): 12
Index gastric damage, signed figure (untitled; difference from Carrier index 8) ([4]; 200 mg/kg): +4
Mean number lesions ([4]; 200 mg/kg): 2
Mean number severity ([4]; 200 mg/kg): 2

CC(=O)Oc1ccccc1C(=O)O [Aspirin, reference compound]
inhibition at 1 µg/mL [5]: 15%
inhibition at 5 µg/mL [5]: 60%
inhibition at 10 µg/mL [5]: 100%
